This note sets out measurements from patent publication US20250155427A1, “CELLS […] TASTE RECEPTORS AND USES THEREOF” (Firmenich Incorporated, priority 2022, published 2025).

In the assay the target is T1, human T1R1, a rat-human T1R3 chimera, and the promiscuous G-protein G16gust25 (UniProt Q7RTX1+Q923K1, A568E/A645S/A698V/A702T/A793V/A807V/C582S/C678S/E725V/E827G/F612A/F622V/F805L/I617V/I740A/I779T/I803L/K818R/L735F/L823M/L825Q/M644L/M706V/M729T/N675D/Q717H/Q757R/Q795R/Q831P/R632Q/R634S/S576L/S610P/S635P/S637R/S679G/T588V/T694M/T813A/V584A/V718M/V723A/V738A/V744T/V821L/W599R/W676R/W824R/Y598H/Y680C/Y794L).
T1 sequence (Q7RTX1 21-841): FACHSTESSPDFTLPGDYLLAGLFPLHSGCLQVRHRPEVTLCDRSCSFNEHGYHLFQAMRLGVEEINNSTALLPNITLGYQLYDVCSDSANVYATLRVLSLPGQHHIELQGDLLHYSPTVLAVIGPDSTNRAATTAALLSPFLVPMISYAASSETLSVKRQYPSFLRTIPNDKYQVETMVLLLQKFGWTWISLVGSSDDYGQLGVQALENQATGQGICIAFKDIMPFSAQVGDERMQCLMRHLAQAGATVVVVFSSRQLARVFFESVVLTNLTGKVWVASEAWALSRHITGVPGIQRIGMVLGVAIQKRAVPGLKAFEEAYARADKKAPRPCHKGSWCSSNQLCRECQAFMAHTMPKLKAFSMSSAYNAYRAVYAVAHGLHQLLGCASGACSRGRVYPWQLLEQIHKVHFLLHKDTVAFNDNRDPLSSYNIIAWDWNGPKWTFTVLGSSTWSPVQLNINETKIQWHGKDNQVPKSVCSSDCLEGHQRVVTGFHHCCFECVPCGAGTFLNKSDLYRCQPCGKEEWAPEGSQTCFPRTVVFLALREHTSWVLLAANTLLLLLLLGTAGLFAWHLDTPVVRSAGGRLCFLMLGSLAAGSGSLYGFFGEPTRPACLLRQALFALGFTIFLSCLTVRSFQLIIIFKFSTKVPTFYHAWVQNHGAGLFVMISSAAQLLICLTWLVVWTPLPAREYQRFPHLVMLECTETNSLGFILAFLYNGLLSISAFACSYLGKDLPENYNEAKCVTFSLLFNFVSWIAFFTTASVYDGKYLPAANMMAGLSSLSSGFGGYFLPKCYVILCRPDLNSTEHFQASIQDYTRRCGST
T1 sequence (Q923K1 with tags, fused parts or gaps A568E/S576L/C582S/V584A/T588V/Y598H/W599R/S610P/F612A/I617V/F622V/R632Q/R634S/S635P/S637R/M644L/A645S/N675D/W676R/C678S/S679G/Y680C/T694M/A698V/A702T/M706V/Q717H/V718M/V723A/E725V/M729T/L735F/V738A/I740A/V744T/Q757R/I779T/A793V/Y794L/Q795R/I803L/F805L/A807V/T813A/K818R/V821L/L823M/W824R/L825Q/E827G/Q831P limits assumed): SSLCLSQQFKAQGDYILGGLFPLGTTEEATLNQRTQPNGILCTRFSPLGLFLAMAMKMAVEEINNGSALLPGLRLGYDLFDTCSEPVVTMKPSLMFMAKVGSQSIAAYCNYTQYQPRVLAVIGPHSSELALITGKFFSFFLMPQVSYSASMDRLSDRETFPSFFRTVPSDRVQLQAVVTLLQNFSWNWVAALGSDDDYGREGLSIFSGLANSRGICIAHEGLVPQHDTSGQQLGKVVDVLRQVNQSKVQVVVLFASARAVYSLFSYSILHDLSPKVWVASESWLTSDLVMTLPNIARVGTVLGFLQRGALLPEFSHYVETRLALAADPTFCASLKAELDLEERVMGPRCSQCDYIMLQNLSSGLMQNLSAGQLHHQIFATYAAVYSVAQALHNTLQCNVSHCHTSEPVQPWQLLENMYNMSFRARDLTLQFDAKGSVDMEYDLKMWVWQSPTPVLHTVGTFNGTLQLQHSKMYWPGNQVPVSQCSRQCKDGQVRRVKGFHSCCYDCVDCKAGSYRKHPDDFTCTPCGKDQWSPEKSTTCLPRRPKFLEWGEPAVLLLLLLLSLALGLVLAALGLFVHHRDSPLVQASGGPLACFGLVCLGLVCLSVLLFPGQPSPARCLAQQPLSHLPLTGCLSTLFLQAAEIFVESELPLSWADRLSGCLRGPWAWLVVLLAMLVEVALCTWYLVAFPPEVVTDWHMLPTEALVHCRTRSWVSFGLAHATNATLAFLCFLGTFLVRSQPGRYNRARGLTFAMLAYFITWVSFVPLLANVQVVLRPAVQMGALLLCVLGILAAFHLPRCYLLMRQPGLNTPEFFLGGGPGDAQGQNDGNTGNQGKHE
The following applies: MSG dose response, U2OS cell line, FIG. 4A.

Excerpt: The x-axis plots the log of MSG concentration, while the y-axis plots fold change in fluorescence of a Ca^2+-sensitive fluorescent dye in response to intracellular Ca^2+ concentration.
The x-axis plots the log of savory compound concentration, while the y-axis plots fold change in fluorescence of a Ca^2+-sensitive fluorescent dye in response to intracellular Ca^2+ concentration. FIG. 4A also indicates the EC50 for each compound.

With `N[C@@H](CCC(=O)O)C(=O)[O-].[Na+]` [MSG, monosodium glutamate], the “fold change in fluorescence of a Ca^2+-sensitive fluorescent dye in response to intracellular Ca^2+ concentration” value is “fluorescence detectably increases as MSG concentration increases”.
